Laboratory results as given in patent publication US20110039763A1, “TARGETED ANTIMICROBIAL MOIETIES” (C3 JIAN, INC., priority 2009, published 2011).

Experiments:
microorganisms [1] = experiment: Morphology, biofilm and growth disrupting peptides (Table 5); assay type: cell-based; parameters: key: A: Peptide aggregates; B: Less hyphal formation; Clumps; Diffuse clumps and small polyps; F: Diffuse growth; H: Thin; I: Growth inhibition; Microcolony formation; Rippled; Small polyps; Thick; W: Halo formation on top, microlonies on bottom
Source text: In certain embodiments peptides that induce alterations in phenotype or other biological activities can also be used as antimicrobial effector moieties.

microorganisms [2] = experiment: Peptide activities: targeting/binding, antimicrobial, growth or phenotype altering (Tables 7, 8); assay type: cell-based; conditions: peptides having multiple activities

Molecule | Organism, effect (microorganisms [1]; E. faecalis) | Organism, effect (microorganisms [1]; MRSA) | Organism, effect (microorganisms [1]; S. epidermidis) | Organism, effect (microorganisms [1]; S. pneumoniae) | Activities (microorganisms [2]) | Organism, effect (microorganisms [1]; B. subtilis) | Organism, effect (microorganisms [1]; C. jeikeium) | Organism, effect (microorganisms [1]; C. jejuni) | Organism, effect (microorganisms [1]; M. luteus) | Organism, effect (microorganisms [1]; E. coli) | Organism, effect (microorganisms [1]; P. aeruginosa) | Organism, effect (microorganisms [1]; P. mirabilis) | Organism, effect (microorganisms [1]; S. mutans) | Organism, effect (microorganisms [1]; C. albicans)
PF-544: peptide having multiple activities (FGEKQMRSWWKVHWFHP; Peptide with targeting and/or antimicrobial activity) | E. faecalis (R) | MRSA (D) | S. epidermidis (D) | S. pneumoniae (M) | G B | – | – | – | – | – | – | – | – | –
PF-548: peptide having multiple activities (ARPIADLIHFNSTTVTASGDVYYGPG; Peptide with targeting and/or antimicrobial activity) | – | MRSA (M) | S. epidermidis (M) | S. pneumoniae (D) | G B | B. subtilis (C) | C. jeikeium (R) | C. jejuni (D) | M. luteus (A) | – | – | – | – | –
PF-556: peptide having multiple activities (SLQIRMNTLTAAKASIEAA; Peptide with targeting and/or antimicrobial activity) | E. faecalis (A) | MRSA (M) | S. epidermidis (A) | S. pneumoniae (D) | G B | B. subtilis (C) | C. jeikeium (D) | C. jejuni (R) | M. luteus (A) | – | – | – | – | –
PF-562: peptide having multiple activities (TPEQWLERSTVVVTGLLNRK; Peptide with targeting and/or antimicrobial activity) | – | MRSA (M) | S. epidermidis (A) | S. pneumoniae (D) | G B | – | – | C. jejuni (R) | M. luteus (R) | – | – | – | – | –
PF-577: peptide having multiple activities (PFETRESFRVPVIGILGGWDYFMHP; Peptide with targeting and/or antimicrobial activity) | E. faecalis (A) | MRSA (M) | S. epidermidis (A) | S. pneumoniae (R) | G B | – | – | C. jejuni (R) | – | E. coli (A) | P. aeruginosa (A) | – | – | –
PF-578: peptide having multiple activities (QKANLRIGFTYTSDSNVCNLTFALLGSK; Peptide with targeting and/or antimicrobial activity) | – | MRSA (C) | S. epidermidis (D) | S. pneumoniae (D) | G B | – | – | – | M. luteus (C) | E. coli (C) | – | P. mirabilis (C) | S. mutans (D) | –
PF-581: peptide having multiple activities (WTARARR; Peptide with targeting and/or antimicrobial activity) | E. faecalis (A) | MRSA (A) | – | S. pneumoniae (A) | G B | – | – | C. jejuni (A) | – | – | – | – | – | –
PF-586: peptide having multiple activities (chain 1 FFNQANYFFKEF; chain 2 FFNQANYFFKEF; Peptide with targeting and/or antimicrobial activity) | E. faecalis (D) | MRSA (D) | S. epidermidis (C) | S. pneumoniae (D) | G B | – | – | C. jejuni (D) | – | E. coli (C) | – | – | – | –
PF-592: peptide having multiple activities (chain 1 IMKNYKYFKLFIVKYALF; chain 2 IMKNYKYFKLFIVKYALF; Peptide with targeting and/or antimicrobial activity) | E. faecalis (D) | MRSA (D) | S. epidermidis (M) | S. pneumoniae (D) | G B | – | – | C. jejuni (S) | – | E. coli (C) | – | – | – | –
PF-595: peptide having multiple activities (chain 1 LQNKIYELLYIKERSKLCS; chain 2 LQNKIYELLYIKERSKLCS; Peptide with targeting and/or antimicrobial activity) | E. faecalis (D) | MRSA (D) | S. epidermidis (C) | S. pneumoniae (R) | G B | – | – | C. jejuni (D) | – | E. coli (C) | – | – | – | –
PF-596: peptide having multiple activities (chain 1 SKMWDKILTILILILELIRELIKL; chain 2 SKMWDKILTILILILELIRELIKL; Peptide with targeting and/or antimicrobial activity) | E. faecalis (D) | MRSA (D) | S. epidermidis (D) | S. pneumoniae (D) | G B | – | – | C. jejuni (D) | – | E. coli (C) | – | – | – | –
PF-605: peptide having multiple activities (chain 1 HYRWNTQWWKY; chain 2 HYRWNTQWWKY; Peptide with targeting and/or antimicrobial activity) | E. faecalis (R) | MRSA (C) | S. epidermidis (R) | S. pneumoniae (D) | G B | – | – | C. jejuni (R) | – | E. coli (C) | P. aeruginosa (A) | – | – | C. albicans (B)
PF-610: peptide having multiple activities (chain 1 VFLKLKTSKIDLASIIFYP; chain 2 VFLKLKTSKIDLASIIFYP; Peptide with targeting and/or antimicrobial activity) | E. faecalis (D) | MRSA (D) | S. epidermidis (C) | S. pneumoniae (D) | G B | – | – | C. jejuni (D) | – | E. coli (C) | – | – | – | –
PF-615: peptide having multiple activities (chain 1 FLNRFIFYIFTVKTKSALIKNLFLD; chain 2 FLNRFIFYIFTVKTKSALIKNLFLD; Peptide with targeting and/or antimicrobial activity) | E. faecalis (D) | MRSA (D) | S. epidermidis (D) | S. pneumoniae (D) | G B | – | – | C. jejuni (D) | – | E. coli (C) | – | – | – | –
PF-619: peptide having multiple activities (chain 1 WSRVPGHSDTGWKVWHRW; chain 2 WSRVPGHSDTGWKVWHRW; Peptide with targeting and/or antimicrobial activity) | – | MRSA (M) | S. epidermidis (M) | S. pneumoniae (C) | G B | – | – | – | – | E. coli (C) | – | – | – | –
PF-630: peptide having multiple activities (chain 1 IPATPIIHS; chain 2 IPATPIIHS; Peptide with targeting and/or antimicrobial activity) | – | MRSA (M) | – | – | G B | – | – | – | – | – | – | – | – | –
PF-634: peptide having multiple activities (chain 1 MPKARPVNHNKKKSKITIKSNFTLFYMFNP; chain 2 MPKARPVNHNKKKSKITIKSNFTLFYMFNP; Peptide with targeting and/or antimicrobial activity) | – | MRSA (D) | S. epidermidis (D) | S. pneumoniae (D) | G B | – | – | – | M. luteus (C) | E. coli (C) | – | P. mirabilis (C) | S. mutans (D) | –
PF-770: peptide having multiple activities (GVGIGFIMMGVVGYAVKLVHIPIRYLIV; Peptide with targeting and/or antimicrobial activity) | – | MRSA (D) | S. epidermidis (D) | S. pneumoniae (C) | G B | – | – | – | M. luteus (C) | E. coli (C) | – | P. mirabilis (C) | S. mutans (D) | –
PF-612: peptide having multiple activities (Peptide with targeting and/or antimicrobial activity) chain 1: GTTLKYGLERQLKIDIHPEITIINLNGGADEFAKL chain 2: GTTLKYGLERQLKIDIHPEITIINLNGGADEFAKL | – | MRSA (C) | S. epidermidis (C) | S. pneumoniae (C) | G B | – | – | – | M. luteus (A) | E. coli (C) | – | P. mirabilis (C) | S. mutans (F) | –
